Assay results taken from patent US20220125760A1, “USE OF USP7 INHIBITORS FOR THE TREATMENT OF ACUTE MYELOID LEUKEMIA (AML)” (INSERM (Institut National de la Santé et de la Recherche …, priority 2019, published 2022).

Legend:
primary AML cells = assay: Colony formation of primary AML blast cells in methylcellulose-based semi-solid medium; assay type: cell-based, Human; details: for colony formation, effect on cytarabine sensitivity: 10 nM cytarabine + 5 μM P22077, 7 days
Description: (§1) B: HL-60 cells were treated as indicated for 24 h. […] Statistical analysis was performed by unpaired t-test (n=4). *P≤0.05 and **P≤0.01. […] Colony formation was assessed after 7 days and represented as the ratio of the number of clones between untreated and treated conditions. For statistical analyses, unpaired Wilcoxon test was used. *P≤0.05, and ns=not significant.
(§2) To explore the possibility that USP7 by modulating CHK1 stability USP7 participates in the chemoresistance of leukemic cells, we examined the capacity of USP7 inhibition to sensitize HL60 and OCI-AML3 cells to cytarabine treatment. […] We then quantified the capacity of primary AML cells to form colonies in methylcellulose-based semi-solid medium, when exposed to clinical relevant concentrations (10 nM) of cytarabine combined with the P22077 inhibitor (FIG. 5D-5E).

CHK1 and USP7 = biological target: T1, CHK1 and USP7 (Homo sapiens, UniProt Q93009); assay: Proximity Ligation Assay (PLA) of CHK1 and USP7 in HL-60 cells; assay type: cell-based; details: HL60 cells, drug treatment, untreated (NT) 1.07+/−0.07
T1 construct: endogenous in cells; host or cells: HL-60 cells
T1 sequence (Q93009 whole entry): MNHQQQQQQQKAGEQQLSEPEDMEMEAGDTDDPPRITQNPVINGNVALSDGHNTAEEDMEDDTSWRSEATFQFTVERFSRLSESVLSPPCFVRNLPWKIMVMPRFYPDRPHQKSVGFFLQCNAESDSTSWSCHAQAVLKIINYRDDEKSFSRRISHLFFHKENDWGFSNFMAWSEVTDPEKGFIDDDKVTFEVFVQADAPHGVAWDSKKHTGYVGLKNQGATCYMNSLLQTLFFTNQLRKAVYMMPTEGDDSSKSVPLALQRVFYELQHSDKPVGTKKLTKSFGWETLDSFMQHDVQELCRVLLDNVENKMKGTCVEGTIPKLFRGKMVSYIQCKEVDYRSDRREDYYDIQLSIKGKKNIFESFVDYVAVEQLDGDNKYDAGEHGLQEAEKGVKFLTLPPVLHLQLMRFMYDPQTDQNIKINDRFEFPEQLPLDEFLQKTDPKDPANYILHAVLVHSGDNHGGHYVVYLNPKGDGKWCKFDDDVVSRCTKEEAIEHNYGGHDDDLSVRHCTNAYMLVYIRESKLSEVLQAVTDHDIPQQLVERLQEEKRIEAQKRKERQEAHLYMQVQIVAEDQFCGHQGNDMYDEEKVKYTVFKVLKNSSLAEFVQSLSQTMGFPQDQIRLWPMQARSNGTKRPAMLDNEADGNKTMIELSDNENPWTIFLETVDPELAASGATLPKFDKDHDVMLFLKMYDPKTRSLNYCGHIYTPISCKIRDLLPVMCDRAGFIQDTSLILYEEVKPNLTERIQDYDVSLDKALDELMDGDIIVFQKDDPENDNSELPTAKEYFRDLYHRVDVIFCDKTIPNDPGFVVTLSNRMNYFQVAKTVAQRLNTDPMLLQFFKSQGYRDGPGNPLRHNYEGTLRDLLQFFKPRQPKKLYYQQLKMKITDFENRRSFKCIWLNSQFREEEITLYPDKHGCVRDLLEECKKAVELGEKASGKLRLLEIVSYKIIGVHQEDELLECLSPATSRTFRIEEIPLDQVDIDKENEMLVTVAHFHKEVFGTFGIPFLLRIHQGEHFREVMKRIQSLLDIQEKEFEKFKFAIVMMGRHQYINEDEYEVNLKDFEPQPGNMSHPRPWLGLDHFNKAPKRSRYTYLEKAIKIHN
Description: as §1

AML primary samples = assay: Cell viability of AML primary samples, annexinV/cell viability staining by flow cytometry; details: three primary AML samples, 10 μM P22077 for 24 h
HL-60 cells = assay: Cell death of HL-60 cells, combination with cytarabine, annexinV flow cytometry; assay type: cell-based, Human; details: HL60 cells, 24 h
Description: as §1, §2

[1] = system: CHK1 protein levels in HEL cells; assay: CHK1 and p53 protein levels in HEL cells; assay type: cell-based, Human; details: data not shown
Text: (§3) We then investigated whether USP7 could regulate CHK1 levels in leukemic cells. […] We then used P22077, an inhibitor of USP7 catalytic activity^34,35, to further monitor the impact of USP7 inhibition on CHK1 levels. […] We then asked whether p53 status could affect this response and reproduced these experiments on two AML cell lines, OCI-AML3 and HEL, which express wild-type p53 and high CHK1 protein levels (FIG. 1A and data not shown). […] Using an immunofluorescence approach, we also validated that approximately 50% of CHK1 protein signal disappears after 24 hours of USP7 inhibition (data not shown).

[2] = system: CHK1 protein levels in HL-60 cells; assay: CHK1 protein level by western blot in HL-60 cells; assay type: cell-based, Human; details: HL-60 cells (p53 null), P22077 at 10, visible from 8 h to 24 h of treatment
Description: (§4) FIG. 2: USP7 inhibition decreases CHK1 protein level. […] Actin was used as loading control. Normalization was performed using CTL siRNA condition as reference. […] B: HL-60 cells were treated with USP7 inhibitor (P22077) at 10 and harvested at the indicated times, followed by western blotting for CHK1. […] The amount of CHK1 at t=0 h was set to 1. […] C: OCI-AML3 cells were treated with USP7 inhibitor (P22077) at 10 μM and harvested at the indicated times, followed by western blotting for CHK1 protein. Graph represent the quantification of CHK1 protein levels normalized to actin loading control from 3 independent experiments. Statistical analyses were performed as in B.
as §3

[3] = system: CHK1 protein level in OCI-AML3 cell line; assay: CHK1 protein level by western blot in OCI-AML3 cells; assay type: cell-based, Human; details: OCI-AML3 cells (wild-type p53), P22077 10 μM
Description: as §4
We then investigated whether USP7 could regulate CHK1 levels in leukemic cells. […] . We then asked whether p53 status could affect this response and reproduced these experiments on two AML cell lines, OCI-AML3 and HEL, which express wild-type p53 and high CHK1 protein levels (FIG. 1A and data not shown). […] . Using an immunofluorescence approach, we also validated that approximately 50% of CHK1 protein signal disappears after 24 hours of USP7 inhibition (data not shown).

[4] = system: CHK1 ubiquitination in HL60 cells; assay: CHK1 immunoprecipitation and ubiquitin immunoblot in HL60 cells with MG132; assay type: cell-based, Human; details: in presence of proteasome inhibitor MG132, vs control condition
Description: To confirm that USP7 can regulates CHK1 protein level, endogenous CHK1 was immunoprecipitated from HL60 cells treated or not with P22077, in presence of the proteasome inhibitor MG132 to stabilize ubiquitinated forms of the protein. Immunoblotting of these fractions was performed and probed with an antibody against ubiquitin.

CHK1 protein signal = assay: Immunofluorescence of CHK1 protein signal; assay type: cell-based; details: after 24 hours of USP7 inhibition, data not shown
Text: as §3
We then investigated whether USP7 can regulate CHK1 protein level or its subcellular localization in leukemic cells. […] Using immunofluorescence, we also validated that approximately 50% of the CHK1 protein signal disappears after 24 hours of USP7 inhibition, without any changes in CHK1 subcellular localization (data not shown).

OCI-AML3 cells = assay: Cell death of OCI-AML3 cells, combination with cytarabine, annexinV flow cytometry; assay type: cell-based, Human; details: P22077 10 μM + AraC 1 μM, 24 h
Description: as §1, §2

[5] = system: Peripheral Blood Mononuclear Cells (PBMC); assay: Cell viability of PBMC, annexinV/cell viability staining by flow cytometry; details: normal PBMC (n=3), 10 μM P22077 for 24 h
[6] = system: CHK1 half-life in HL60 cells; assay: CHK1 half-life with cycloheximide in HL60 cells; assay type: cell-based, Human
Description: To complete, experiments were performed to test whether the half-life of CHK1 is regulated by USP7 in leukemic cells. To this end, HL60 cells were treated with P22077 and the half-life of CHK1 was measured in the presence of 50 μg/mL cycloheximide (CHX) to inhibit protein biogenesis.

[7] = system: OCI-AML3 cells engrafted in NSG mice; assay: OCI-AML3 xenograft in NSG mice, overall survival; details: NSG mice engrafted with OCI-AML3, 30 mg/kg/day IP for 5 days, vs vehicle, p=0.0001
Description: For statistical analysis, Mantel-Cox test was used. ***P≤0.001.
NOD/LtSz-SCID/IL-2Ry chain null (NSG) mice were bred at the UMS006 in Toulouse (France) using breeders obtained from Charles River. […] NSG mice were treated by i.p. injection of busulfan (20 mg/kg) on the day before the experiment. Mice were engrafted by injection of 2.10^6 OCI-AML3 cells into the tail vein. […] Mice were treated by daily intraperitoneal (IP) injection with AraC, P22077 or vehicle for 5 days. Overall mouse survival was established under these conditions.
OCI-AML3 resistant cells were injected into the tail vein of immunodeficient NSG mice to establish AML disease.

SMILES	colony formation, resistance of high CHK1 cells compared to low CHK1 cells (primary AML cells; 10 nM cytarabine alone, 7 days)	PLA foci per cell, co-staining of CHK1 and USP7 (mean +/- s.e.m.) (CHK1 and USP7)	PLA foci per cell, co-staining of CHK1 and USP7 (mean +/- s.e.m.) (CHK1 and USP7; listed as AraC)	cell viability (AML primary samples)	cell death in combination with cytarabine (HL-60 cells)	CHK1 protein levels ([1]; HEL cells (wild-type p53))	p53 protein levels ([1]; HEL cells)	CHK1 protein levels [2]	colony formation, effect on cytarabine sensitivity (primary AML cells; high CHK1 primary AML cells (n=6))	colony formation, effect on cytarabine sensitivity (primary AML cells; low CHK1 primary AML cells (n=3))	CHK1 protein level [3]	CHK1 ubiquitination [4]	CHK1 protein signal that disappears (immunofluorescence) (CHK1 protein signal)	cell death in combination with cytarabine (OCI-AML3 cells)	cell viability [5]	half-life of CHK1 protein ([6]; 50 μg/mL cycloheximide, after 6 hours of P22077 treatment)	CHEK1 mRNA expression ([6]; P22077 treatment, data not shown)	overall mouse survival [7]
Nc1ccn([C@@H]2O[C@H](CO)[C@@H](O)[C@@H]2O)c(=O)n1 [cytarabine]	significantly more resistant to cytarabine	significant proximity between the two proteins	3.31+/−0.21 foci/cell															
CC(=O)c1cc([N+](=O)[O-])c(Sc2ccc(F)cc2F)s1 [P22077, 1-[5-[(2,4-Difluorophenyl)thio]-4-nitro-2-thienyl]-ethanone]				significantly reduced cell viability	synergistically enhances cell death induced by cytarabine	similarly decreased CHK1 protein levels	without significant impact on p53 protein levels	significant decrease of CHK1 protein levels	potentiated the effects of cytarabine	did not modify the sensitivity to cytarabine	reduced CHK1 protein level	more abundantly ubiquitinated	approximately 50%	synergistically enhances cell death induced by cytarabine	largely unaffected	significantly shortened the half-life of CHK1 protein	without affecting CHEK1 mRNA expression	significantly improved overall mouse survival
